Experiments:
[1] = ΔH/RT value (heat of fusion by differential scanning calorimetry divided by R and melting point in K); assay type: physicochemical
Procedure: The value ΔH/RT is a well understood expression which means the enthalpy (heat) of fusion of a compound (ΔH in kJmol^−1) at the normal melting point of the compound divided by the molar gas constant (R, where R is 8.31451 Jmol^−1K^−1) and the melting point of the compound measured on the absolute or Kelvin scale (in °K). Thus, for example, the ΔH/RT value of octadecane, which has a melting point of 28.2° C. and a heat of fusion of 61.39 kJmol^−1 (see the CRC Handbook of Chemistry and Physics, [1996-1997], 77th Edition. 6-138) is calculated as follows: […]
The heat of fusion of a compound (ΔH) may be measured by differential scanning calorimetry. A suitable method is described by McNaughton, J. L. and Mortimer, C. T. in IRS: Physical Chemistry Series 2, Butterworth, London 1975, Vol 10; subsequently reprinted by Perkin-Elmer Corpn. Norwalk, Conn., USA.

[2] = Optical microscope image analysis of droplet / crystal size in aqueous emulsion or dispersion; assay type: physicochemical; details: for crystal size immediately after sonication: all four samples (6 and 2 lhr^−1); for droplet size of hot emulsion: before cooling
Text: (§1) A small sample of the cooled sonicated emulsion was transferred using a capillary tube to a microscope slide and was protected with a glass cover slip. The slide was viewed using transmitted light or cross-polarised light (Zeiss microscope) and an image recorded on a calibrated micrograph. The micrograph provides information as to the size (μm), shape and degree of crystallinity of the droplets or crystals.

[3] = Storage of crystalline dispersion, Ostwald ripening (crystal growth) under optical microscope; assay type: physicochemical; details: 1% w/w sonicated dispersion, after one week
Text: as §1
The number of spheres/particles in the final dispersion was similar to the number of droplets in the original hot emulsion which indicated nucleation had occurred preferentially in the droplets.

[4] = CRC Handbook of Chemistry and Physics, 77th Edition; cited from earlier work
[5] = enthalpy of fusion at normal melting point / (R × melting point in K)
[6] = 1% w/w aqueous dispersion, cooled to 20° C., continuous sonication 500 w
[7] = 1% w/w in aqueous Mowiol 18-88, emulsified five minutes by high shear mixer
[8] = 1% w/w aqueous dispersion, sonicated, higher flow (6 lhr^−1)

Compound: CCCCNC(=O)OCC#CI [IPBC, 3-iodo-2-propynyl butyl carbamate]
- ΔH/RT [1, 5]: 9.25
- crystal size immediately after sonication [2, 6]: < 10 μm
- droplet size of hot emulsion [2, 7]: ≤ 10 μm
- Ostwald ripening (crystal growth) of sonicated dispersion [3]: no sign of “Ostwäld” ripening

Compound: C=C1C2CC[C@@H](C2)C1(C)C [camphene, (1S)-2,2-dimethyl-3-methylenebicyclo[2.2.1]heptane]
- ΔH/RT [1, 5]: 1.15
- size of plates after sonication [2, 8]: 30 μm
- size of small needles after sonication [2, 8]: 2 μm

Compound: CCCCCCCCCCCCCCCCCC [octadecane]
- ΔH/RT ([1]; calculated from CRC Handbook melting point 28.2° C. and heat of fusion): 24.5
- heat of fusion [4]: 61.39 kJmol^−1

Compound: α-methyl-4-(2-methylpropyl)benzene acetic acid [ibuprofen]
- ΔH/RT [1, 5]: 9.33
- crystal size immediately after sonication [2, 6]: < 10 μm
- droplet size of hot emulsion [2, 7]: ≤ 10 μm
- crystal size (twinned crystals) without sonication ([2]; 2% aqueous dispersion, cooled without sonication, equilibrated for 18 hrs): 100-200 μm
- crystal size (crystalline spheres) immediately after sonication ([2]; 20% w/w aqueous dispersion, cooled to 20° C., continuous sonication 500 w, all four samples): < 10 μm
- droplet size of hot emulsion ([2]; 20% w/w in aqueous Mowiol 18-88, emulsified five minutes by high shear mixer): ≤ 10 μm

From US6517853B1, “Process for preparing a crystal suspension” (Syngenta Limited, priority 1999, dated 2003)
